# Measured values reported in ChEMBL document CHEMBL1128060, “Deoxypseudophrynaminol: a novel antibacterial alkaloid” (1995).
# The source made the active and inactive calls. The rule behind the calls is not given here.
# Tests used:
# Escherichia coli = experiment: Minimum inhibitory concentration against growth of […] Escherichia coli […]; type: functional
# Enterococcus faecalis [1] = experiment: Minimum inhibitory concentration against growth of patient isolated vancomycin-resistant Enterococcus faecalis ATCC 51299 (VRE2); type: functional
# Enterococcus faecium = experiment: Minimum inhibitory concentration against growth of patient isolated vancomycin-resistant Enterococcus faecium (VRE1); type: functional
# Staphylococcus aureus [2] = experiment: Minimum inhibitory concentration against growth of patient isolated methicillin-resistant Staphylococcus aureus (MRSA1); type: functional
# Staphylococcus aureus [3] = experiment: Minimum inhibitory concentration against growth of patient isolated methicillin-resistant Staphylococcus aureus (MRSA2); type: functional
# Enterococcus faecalis [4] = experiment: Minimum inhibitory concentration against growth of patient isolated vancomycin-resistant Enterococcus faecalis ATCC 51299 (VRE2); no inhibition; type: functional, organism-based
# Staphylococcus aureus [5] = experiment: Minimum inhibitory concentration against growth of patient isolated methicillin-resistant Staphylococcus aureus (MRSA2); no inhibition; type: functional, organism-based
SMILES,MIC (Escherichia coli) [µg/mL],MIC (Enterococcus faecalis [1]) [µg/mL],MIC (Enterococcus faecium) [µg/mL],MIC (Staphylococcus aureus [2]) [µg/mL],MIC (Staphylococcus aureus [3]) [µg/mL],MIC (Enterococcus faecalis [4]),MIC (Staphylococcus aureus [5])
CC(C)=CCC12CCN(C)C1Nc1ccccc12 (configuration not stated),160,40,20,40,40,,
CC(C)=CCN1c2ccccc2C2(CC=C(C)C)CCN(C=O)C12 (configuration not stated),,,,,,inactive,inactive
